From patent US7855290B2, “Pyridine derivatives and pyrimidine derivatives (3)” (Eisai R&D Management Co., Ltd., priority 2005, dated 2010)

Assays:
[1] = tested on: Human gastric cancer cells (MKN-45); assay: Inhibitory activity against the proliferation of human gastric cancer cells (MKN-45); type: cell-based; details: 72 h, MKN-45, 1% FBS RPMI1640, 3 days, Cell Counting Kit-8
In short: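 MKN-45 cells seeded overnight in RPMI1640 with 1% FBS, then exposed to compound for 3 days at 37° C, 5% CO2. Viability read with CCK-8 after about 1.5 hrs, absorbance at 450 nm (reference 660 nm).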

[2] = molecular target: T1, His6-HGFR (HGFR cytoplasmic domain) (Homo sapiens, UniProt P08581); assay: Inhibitory activity against HGFR tyrosine kinase activity (HTRF); type: biochemical; details: biotin-poly(GT), ATP, 30° C. 10 min
T1 construct: made in house; host or cells: Sf9 insect cells (Spodoptera frugiperda), baculovirus, pFastBac-HT vector
T1 sequence (P08581 956-1390 limits assumed): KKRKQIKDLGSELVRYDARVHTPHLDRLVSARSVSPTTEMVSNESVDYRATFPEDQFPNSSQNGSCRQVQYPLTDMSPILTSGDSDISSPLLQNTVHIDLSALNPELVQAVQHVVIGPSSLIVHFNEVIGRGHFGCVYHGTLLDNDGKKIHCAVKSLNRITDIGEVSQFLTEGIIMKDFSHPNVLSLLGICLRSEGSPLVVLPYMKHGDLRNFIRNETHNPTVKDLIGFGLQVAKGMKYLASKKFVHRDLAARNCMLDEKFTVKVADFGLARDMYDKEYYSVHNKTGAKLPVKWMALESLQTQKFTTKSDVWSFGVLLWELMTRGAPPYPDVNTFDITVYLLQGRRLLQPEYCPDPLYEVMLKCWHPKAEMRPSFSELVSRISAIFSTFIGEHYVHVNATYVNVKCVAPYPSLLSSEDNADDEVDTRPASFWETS
In short: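 Sf9-expressed, Ni-NTA-purified N-terminal His6-tagged HGFR cytoplasmic domain (from Lys974), 30 ng, phosphorylates 250 ng biotin-poly(GT) in Hepes pH 7.4 with MgCl2, MnCl2 and Na3VO4. Reaction started with 4 μM ATP stock, run 10 min at 30° C, stopped with EDTA. Phosphotyrosine is detected by HTRF.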

| Structure (SMILES) | IC50 [1] [nM] | IC50 [2] [nM] |
| --- | --- | --- |
| O=C(Nc1cc(Oc2ccc(NC(=O)C3(C(=O)Nc4ccc(F)cc4)CC3)cc2)ccn1)N1CCC(CN2CCCC2)CC1 [Example 29, N-(4-Fluorophenyl)-N′-(4-{[2-({[4-(pyrrolidin-1-ylmethyl)piperidin-1-yl]-carbonyl}amino)pyridin-4-yl]oxy}phenyl)cyclopropane-1,1-dicarboxamide] | 50 | 63 |
| O=C(Nc1cc(Oc2cc(F)c(NC(=O)C3(C(=O)Nc4ccc(F)cc4)CC3)cc2F)ccn1)N1CCC(O)CC1 [Example 105] | 4.1 | 15 |
| CN(C)[C@H]1CCN(C(=O)Nc2cc(Oc3ccc(NC(=O)C4(C(=O)Nc5ccc(F)cc5)CC4)c(F)c3)ccn2)C1 [Example 46, N-(4-{[2-({[(3S)-3-(Dimethylamino)pyrrolidin-1-yl]carbonyl}amino)pyridin-4-yl]oxy}-2-fluorophenyl)-N′-(4-fluorophenyl)cyclopropane-1,1-dicarboxamide] | 14 | 64 |
| O=C(Nc1cc(Oc2ccc(NC(=O)C3(C(=O)Nc4ccc(F)cc4)CC3)c(F)c2)ccn1)N1CCOCC1 [Example 63, N-[2-Fluoro-4-({2-[(morpholin-4-ylcarbonyl)amino]pyridin-4-yl}oxy)phenyl]-N′-(4-fluorophenyl)cyclopropane-1,1-dicarboxamide] | 54 | 14 |
| CN1CCC(N(C)C(=O)Nc2cc(Oc3ccc(NC(=O)C4(C(=O)Nc5ccc(F)cc5)CC4)cc3)ccn2)CC1 [Example 12] | 31 | 37 |
| CN(C)C1CN(C2CCN(C(=O)Nc3cc(Oc4ccc(NC(=O)C5(C(=O)Nc6ccc(F)cc6)CC5)cc4F)ccn3)CC2)C1 [Example 21, N-[4-({2-[({4-[3-(Dimethylamino)azetidin-1-yl]piperidin-1-yl}carbonyl)amino]pyridin-4-yl}oxy)-3-fluorophenyl]-N′-(4-fluorophenyl)cyclopropane-1,1-dicarboxamide] | 27 | 62 |
| O=C(Nc1cc(Oc2ccc(NC(=O)C3(C(=O)Nc4ccc(F)cc4)CC3)c(F)c2)ccn1)N1CCC(CN2CCCC2)CC1 [Example 40, N-(4-Fluorophenyl)-N′-(2-fluoro-4-{[2-({[4-(pyrrolidin-1-ylmethyl)piperidin-1-yl]carbonyl}amino)pyridin-4-yl]oxy}phenyl)cyclopropane-1,1-dicarboxamide] | 17 | 55 |
| CN1CC(N2CCN(C(=O)Nc3cc(Oc4ccc(NC(=O)C5(C(=O)Nc6ccc(F)cc6)CC5)cc4F)ccn3)CC2)C1 [Example 22, N-(3-Fluoro-4-{[2-({[4-(1-methylazetidin-3-yl)piperazin-1-yl]carbonyl}amino)pyridin-4-yl]oxy}phenyl)-N′-(4-fluorophenyl)cyclopropane-1,1-dicarboxamide] | 13 | 50 |
| CN(C)CCN1CCN(C(=O)Nc2cc(Oc3ccc(NC(=O)C4(C(=O)Nc5ccc(F)cc5)CC4)c(F)c3)ccn2)CC1 [Example 2, N-[4-({2-[({4-[2-(Dimethylamino)ethyl]piperazin-1-yl}carbonyl)amino]pyridin-4-yl}oxy)-2-fluorophenyl]-N′-(4-fluorophenyl)cyclopropane-1,1-dicarboxamide] | 18 | 55 |

More lines, now with the values ahead:

| IC50 [1] [nM] | IC50 [2] [nM] | Structure (SMILES) |
| --- | --- | --- |
| 500 | 240 | CCN(CC)CCCNC(=O)Nc1cc(Oc2ccc(NC(=O)C3(C(=O)Nc4ccc(F)cc4)CC3)cc2C)ccn1 [Example 45, N-[4-({2-[({[3-(Diethylamino)propyl]amino}carbonyl)amino]pyridin-4-yl}oxy)-3-methylphenyl]-N′-(4-fluorophenyl)cyclopropane-1,1-dicarboxamide] |
| 18 | 18 | O=C(Nc1cc(Oc2ccc(NC(=O)C3(C(=O)Nc4ccc(F)cc4)CC3)cc2F)ccn1)N1CC(O)C1 [Example 80, N-{3-Fluoro-4-[(2-{[(3-hydroxyazetidin-1-yl)carbonyl]amino}pyridin-4-yl)oxy]phenyl}-N′-(4-fluorophenyl)cyclopropane-1,1-dicarboxamide] |
| 134 | 23 | O=C(Nc1cc(Oc2ccc(NC(=O)C3(C(=O)Nc4ccc(F)cc4)CC3)cc2)ccn1)N1CCOCC1 [Example 68, N-(4-Fluorophenyl)-N′-[4-({2-[(morpholin-4-ylcarbonyl)amino]pyridin-4-yl}oxy)phenyl]cyclopropane-1,1-dicarboxamide] |
| 17 | 60 | CN(C)C1CN(C2CCN(C(=O)Nc3cc(Oc4ccc(NC(=O)C5(C(=O)Nc6ccc(F)cc6)CC5)c(F)c4)ccn3)CC2)C1 [Example 14, N-[4-({2-[({4-[3-(Dimethylamino)azetidin-1-yl]piperidin-1-yl}carbonyl)amino]pyridin-4-yl}oxy)-2-fluorophenyl]-N′-(4-fluorophenyl)cyclopropane-1,1-dicarboxamide] |
| 23 | 15 | O=C(Nc1cc(Oc2ccc(NC(=O)C3(C(=O)Nc4ccc(F)cc4)CC3)cc2F)ccn1)N1CCC1 [Example 65, N-[4-({2-[(Azetidin-1-ylcarbonyl)amino]pyridin-4-yl}oxy)-3-fluorophenyl]-N′-(4-fluorophenyl)cyclopropane-1,1-dicarboxamide] |
| 6.8 | 71 | CN1CCN(C(=O)Nc2cc(Oc3cc(F)c(NC(=O)C4(C(=O)Nc5ccc(F)cc5)CC4)cc3F)ccn2)CC1 [Example 104, N-{2,5-Difluoro-4-[(2-{[(4-methylpiperazin-1-yl)carbonyl]amino}pyridin-4-yl]oxy}phenyl)-N′-(4-fluorophenyl)cyclopropane-1,1-dicarboxamide] |
| 15 | 39 | CN1CCC(N(C)C(=O)Nc2cc(Oc3ccc(NC(=O)C4(C(=O)Nc5ccc(F)cc5)CC4)c(F)c3)ccn2)CC1 [Example 3, N-(2-Fluoro-4-{[2-({[methyl(1-methylpiperidin-4-yl)amino]carbonyl}amino)pyridin-4-yl]oxy}phenyl)-N′-(4-fluorophenyl)cyclopropane-1,1-dicarboxamide] |
| 16 | 85 | CN1CCC(N(C)C(=O)Nc2cc(Oc3cc(F)c(NC(=O)C4(C(=O)Nc5ccc(F)cc5)CC4)cc3F)ncn2)CC1 [Example 100, N-(2,5-Difluoro-4-{[4-({[methyl(1-methylpiperidin-4-yl)amino]carbonyl}amino)pyrimidin-6-yl]oxy}phenyl)-N′-(4-fluorophenyl)cyclopropane-1,1-dicarboxamide] |
| 20 | 48 | CN(C)CC1CCN(C(=O)Nc2cc(Oc3ccc(NC(=O)C4(C(=O)Nc5ccc(F)cc5)CC4)c(F)c3)ccn2)CC1 [Example 8, N-[4-({2-[({4-[(Dimethylamino)methyl]piperidin-1-yl}carbonyl)amino]pyridin-4-yl}oxy)-2-fluorophenyl]-N′-(4-fluorophenyl)cyclopropane-1,1-dicarboxamide] |
| 76 | 55 | O=C(Nc1cc(Oc2ccc(NC(=O)C3(C(=O)Nc4ccc(F)cc4)CC3)cc2)ccn1)N1CCC(N2CCC2)CC1 [Example 13, N-{4-[(2-{[(4-Azetidin-1-ylpiperidin-1-yl)carbonyl]amino}pyridin-4-yl)oxy]phenyl}-N′-(4-fluorophenyl)cyclopropane-1,1-dicarboxamide] |
